Data set [1] in a line: Apparent intrinsic clearance in rat liver microsomes at 1 uM. It is filed as ADME, microsome. The following applies: read-out: CLH(app). (Microsomes from liver hold many membrane-bound enzymes, among them those of drug oxidation.)
Data set [2] is described as follows: Apparent permeability in pig LLC-PK1 cells. It is filed as ADME, cell-based, Sus scrofa.
Data set [3] is described as follows: Dissociation constant, pKa of the compound by UV spectrophotometric method. It counts as physicochemical.
The nature of data set [4]: Apparent intrinsic clearance in human liver microsomes at 1 uM. It counts as ADME, microsome. The following applies: read-out: CLH(app).
The nature of data set [5]: Drug level in Crl:CD(SD) rat CSF at 10 mg/kg, po administered as single dose via gavage measured after 4 hrs. Conditions: read-out: Drug uptake. It is filed as ADME, organism-based, Cerebrospinal fluid.
Data set [6] is described as follows: Plasma concentration in Crl:CD(SD) rat at 10 mg/kg, po administered as single dose via gavage measured after 4 hrs. It is filed as ADME, organism-based.
The nature of data set [7]: Unbound plasma concentration in Crl:CD(SD) rat at 10 mg/kg, po administered as single dose via gavage measured after 4 hrs. It is filed as ADME, organism-based. The following applies: in vivo.
Data set [8] can be described thus: Drug level in Crl:CD(SD) rat brain at 10 mg/kg, po administered as single dose via gavage measured after 4 hrs. It counts as ADME, organism-based. Conditions: read-out: Drug uptake.

Consider 3 compounds from ChEMBL document CHEMBL4184270, “Diastereoselective synthesis of fused cyclopropyl-3-amino-2,4-oxazine β-amyloid cleaving enzyme (BACE) inhibitors and their biological evaluation” (Bioorg Med Chem Lett, 2018).

Molecules are shown by their SMILES.

For the compound `COc1cnc(C(=O)Nc2ccc(F)c([C@]3(C)CCOC(N)=N3)c2)cn1`, the microsomal CLint at 1 µM in data set [1] is 52 µL/min/mg; in data set [4], below 14 µL/min/mg. In data set [2], the Papp turned out to be 3.4 ×10⁻⁶ cm/s. For the same compound, the pKa in data set [3] worked out at 9.8.

For `COc1cnc(C(=O)Nc2ccc(F)c([C@@]3(C)N=C(N)O[C@H]4C[C@H]43)c2)cn1`, in data set [2], the Papp turned out to be 2.5 ×10⁻⁶ cm/s. The same compound returned a pKa in data set [3] of 8.8. Further, in data set [4], the microsomal CLint at 1 µM turned out to be 162 µL/min/mg.

Turning to `COc1cnc(C(=O)Nc2ccc(F)c([C@@]3(C)N=C(N)O[C@@H]4C[C@@H]43)c2)cn1`, the microsomal CLint at 1 µM in data set [1] worked out at 30 µL/min/mg; in data set [4], 105 µL/min/mg. In addition, the Papp in data set [2] turned out to be 1.8 ×10⁻⁶ cm/s. Also, in data set [3], the pKa is 9.3. The values for the concentration at 4 h in data set [5], in data set [6] and in data set [8] were 210 nM, 2300 nM and 1100 nM, respectively. Moreover, the “Cp(f)” value in data set [7] was 920 nM.

In general, Papp refers to the rate of passage across a membrane or cell layer, normalised by area and donor concentration. As a reminder, the pKa is the negative logarithm of the acid dissociation constant. Read a low pKa as a stronger acid or weaker base.
